# Results reported in patent US10106535B2, “Histone deacetylase inhibitors and compositions and methods of use thereof” (CHDI Foundation, Inc., priority 2013, dated 2018).
# Test system: cellular histone deacetylase enzymatic activity in Jurkat E6-1 cells
# Assay: Inhibition of cellular HDAC activity in Jurkat E6-1 cells, fluorogenic substrate Boc-Lys(Tfa)-AMC
# Assay type: cell-based
# Conditions: Homo sapiens, read-out: Cell IC50
# Description: Example 50: Analysis of Inhibition of Cellular HDAC Activity with Class IIa Histone Deacetylase (HDAC) Inhibitors
# The potency of Class IIa Histone Deacetylase (HDAC) inhibitors is quantified by measuring the cellular histone deacetylase enzymatic activity using the fluorogenic substrate, Boc-Lys(Tfa)-AMC. After penetration in Jurkat E6-1 cells, the substrate is deacetylated to Boc-Lys-AMC. After cell lysis and cleavage by trypsin, the fluorophore AMC is released from the deacetylated substrate only. The fluorescence of the sample is directly related to the histone deacetylase activity in the sample.
# Jurkat E6.1 cells are cultured according to standard cell culture protocols in Jurkat E6.1 Growth Media (RPMI without phenol red, 10% FBS, 10 mM HEPES, and 1 mM Sodium Pyruvate). Jurkat E6.1 cells are counted using a Coulter Counter and resuspended in Jurkat E6.1 growth media at a concentration of 75,000 cells/35 μl. 35 μl or 75,000 cells is seeded into Greiner microtitre assay plates. The plates are then incubated at 37° C. and 5% CO2 while other assay components are being prepared.
# (§1) Serial dilutions of the HDAC inhibitors and control reference compound (1-(5-(3-((4-(1,3,4-oxadiazol-2-yl)phenoxy)methyl)-1,2,4-oxadiazol-5-yl)thiophen-2-yl)-2,2,2-trifluoroethanone) are made by first resuspending the lyophilized compound to a final concentration of 10 mM in 100% DMSO. Stocks of 70 μl aliquots of the 10 mM compound in DMSO are prepared and stored at −20° C. From one stock aliquot of each compound to be tested and the reference compound, a 16-point serial dilution is prepared according to Table 1 using a 125 μl 16-channel Matrix multi-channel pipette.
# 2 μl (200×) of each diluted solution and each control (full activity: 100% DMSO alone or full inhibition 1 mM) is stamped into V-bottom polypropylene 384-well compound plates using either the Bravo, Janus, or 12.5 μl 16-channel Matrix multi-channel pipette. Each well with the 200× compound solution is diluted 1:20 by the addition of 38 μl Jurkat assay buffer+DMSO (9.5% DMSO, RPMI without phenol red, 0.09% FBS, 9 mM Hepes, and 0.9 mM Sodium Pyruvate equilibrated to room temperature)
# 5× (500 μM) substrate is prepared just prior to the addition to the assay. The 5× substrate is prepared by diluting a 100 mM Boc-Lys(Tfa)-AMC in DMSO solution 1:200 by adding it drop-wise to Jurkat assay medium (RPMI without phenol red, 0.1% FBS, 10 mM Hepes, and 1 mM Sodium Pyruvate equilibrated to 37° C.) while vortexing at slow speed to prevent precipitation.
# 10 ml of 3× lysis buffer is prepared with 8.8 ml of 3× stock lysis buffer (50 mM Tris-HCl, pH 8.0, 137 mM NaCl, 2.7 mM KCl, 1 mM MgCl2, 1% Nonidet P40 Substitute equilibrated to room temperature) and 1.2 ml of 3 mg/ml Trypsin equilibrated to room temperature.
# 5 μl of each solution of 1:20 diluted compound from above is transferred to the Greiner microtitre assay plates with 75,000 cells/well using the Bravo. Cells are then incubated for 2 hours at 37° C. and 5% CO2. The assay is then started by adding 10 μl of 5× (500 μM) substrate to the assay plate using either the Bravo or 16-channel Matrix multi-channel pipette. The cells are then incubated for 3 hours at 37° C. and 5% CO2. Next, 25 μl of 3× lysis buffer is added to each well using either the 125 μl 16 channel pipette or the Bravo. The assay plate is then incubated overnight (15-16 hours) at 37° C. and 5% CO2. The following day, the plates are shaken on an orbital shaker for 1 minute at 900 rpm. Finally the top read fluorescence (Excitation: 355 nm, Emission: 460 nm) is measured using PerkinElmer EnVision.
row,SMILES,IC50 [nM]
1,"Cc1ncc(C2=C[C@](C(=O)NO)(c3cccc(F)c3C)CC2)cn1 [Example 10, (S)-1-(3-fluoro-2-methylphenyl)-N-hydroxy-3-(2-methylpyrimidin-5-yl)cyclopent-2-enecarboxamide]",380
2,"Cc1c(F)cccc1[C@@]1(C(=O)NO)C=C(C2CC2)CC1 [Example 32, (S)-3-cyclopropyl-1-(3-fluoro-2-methylphenyl)-N-hydroxycyclopent-2-enecarboxamide]",730
3,"O=C(NO)[C@]1(c2ccccc2)C=C(c2ccccc2)CC1 [Example 33, (S)-N-hydroxy-1,3-diphenylcyclopent-2-enecarboxamide]",2500
4,"O=C(NO)[C@@]1(c2ccccc2)C=C(c2ccccc2)CC1 [Example 34, (R)-N-hydroxy-1,3-diphenylcyclopent-2-enecarboxamide]",> 50000
5,"O=C(NO)[C@]1(c2ccccc2)C=C(c2cncc(F)c2)CC1 [Example 35, (S)-3-(5-fluoropyridin-3-yl)-N-hydroxy-1-phenylcyclopent-2-enecarboxamide]",3100
6,"Cc1ncc(Cl)cc1C1=C[C@](C(=O)NO)(c2cccc(F)c2C)CC1 [Example 36, (S)-3-(5-chloro-2-methylpyridin-3-yl)-1-(3-fluoro-2-methylphenyl)-N-hydroxycyclopent-2-enecarboxamide]",120
7,"O=C(NO)C1(c2ccccc2)CC=C(c2cncc(F)c2)CC1 (stereo not shown) [Example 43, 4-(5-fluoropyridin-3-yl)-N-hydroxy-1,2,3,6-tetrahydro-[1,1′-biphenyl]-1-carboxamide]",39000
8,"Cc1c(F)cccc1C1(C(=O)NO)CC=C(c2cncc(F)c2)CC1 (stereo not shown) [Example 44, 3′-fluoro-4-(5-fluoropyridin-3-yl)-N-hydroxy-2′-methyl-1,2,3,6-tetrahydro-[1,1′-biphenyl]-1-carboxamide]",670
9,"Cc1c(F)cccc1C1(C(=O)NO)CC=C(c2ccc3nccnc3c2)CC1 (stereo not shown) [Example 45, 3′-fluoro-N-hydroxy-2′-methyl-4-(quinoxalin-6-yl)-1,2,3,6-tetrahydro-[1,1′-biphenyl]-1-carboxamide]",520

# Now those with a lower IC50, led by results:
row,IC50 [nM],SMILES
1,90,"Cc1ncccc1C1=C[C@](C(=O)NO)(c2cccc(F)c2C)CC1 [Example 37, (S)-1-(3-fluoro-2-methylphenyl)-N-hydroxy-3-(2-methylpyridin-3-yl)cyclopent-2-enecarboxamide]"
2,10,"Cc1c(F)cccc1[C@@]1(C(=O)NO)C=C(c2ccc3cnn(C)c3c2)CC1 [Example 38, (S)-1-(3-fluoro-2-methylphenyl)-N-hydroxy-3-(1-methyl-1H-indazol-6-yl)cyclopent-2-enecarboxamide]"
3,30,"Cc1c(F)cccc1[C@@]1(C(=O)NO)C=C(c2ccc3cnn(C(F)F)c3c2)CC1 [Example 39, (S)-3-(1-(difluoromethyl)-1H-indazol-6-yl)-1-(3-fluoro-2-methylphenyl)-N-hydroxycyclopent-2-enecarboxamide]"
4,50,"Cc1c(F)cccc1[C@@]1(C(=O)NO)C=C(c2ccc3scnc3c2)CC1 [Example 40, (S)-3-(benzo[d]thiazol-5-yl)-1-(3-fluoro-2-methylphenyl)-N-hydroxycyclopent-2-enecarboxamide]"
5,40,"Cc1c(F)cccc1[C@@]1(C(=O)NO)C=C(c2cc3ccccc3s2)CC1 [Example 41, (S)-3-(benzo[b]thiophen-2-yl)-1-(3-fluoro-2-methylphenyl)-N-hydroxycyclopent-2-enecarboxamide]"
6,20,"Cc1c([C@@]2(C(=O)NO)C=C(c3ccc4cnn(C)c4c3)CC2)ccc(F)c1F [Example 42, (S)-1-(3,4-difluoro-2-methylphenyl)-N-hydroxy-3-(1-methyl-1H-indazol-6-yl)cyclopent-2-enecarboxamide]"

# Target: human catalytic domain HDAC4 protein (amino acids 648-1032) (Homo sapiens (Human), UniProt P56524)
# Sequence (P56524 648-1032): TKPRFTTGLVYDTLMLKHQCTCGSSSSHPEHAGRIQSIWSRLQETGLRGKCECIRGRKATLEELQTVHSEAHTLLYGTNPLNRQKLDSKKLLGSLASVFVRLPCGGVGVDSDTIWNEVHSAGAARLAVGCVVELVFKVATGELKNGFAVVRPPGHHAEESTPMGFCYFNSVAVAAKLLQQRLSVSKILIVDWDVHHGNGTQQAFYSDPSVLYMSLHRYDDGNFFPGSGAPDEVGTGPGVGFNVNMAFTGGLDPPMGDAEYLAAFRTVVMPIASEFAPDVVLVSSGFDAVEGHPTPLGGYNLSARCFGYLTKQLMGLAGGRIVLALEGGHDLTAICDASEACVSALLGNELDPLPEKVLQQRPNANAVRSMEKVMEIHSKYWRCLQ
# Assay: Inhibition of HDAC4 catalytic domain enzymatic activity, fluorogenic substrate Boc-Lys(Tfa)-AMC
# Conditions: read-out: Biochemical HDAC-4 IC50
# Description: The potency of Class IIa Histone Deacetylase (HDAC) inhibitors is quantified by measuring the Histone Deacetylase 4 (HDAC4) catalytic domain enzymatic activity using the fluorogenic substrate, Boc-Lys(Tfa)-AMC. The substrate is deacetylated to Boc-Lys-AMC by HDAC4. Cleavage by trypsin results in the release of the fluorophore AMC from the deacetylated substrate. The fluorescence of the sample is directly related to the histone deacetylase activity in the sample.
# as §1, with “100% dimethyl sulfoxide (DMSO).” for “100% DMSO.”, “of 60” for “of 70”, “Table 7” for “Table 1”, “multi-channel pipette (Matrix Technologies Ltd). […]” for “multi-channel pipette.”
# 5 μl of each solution of 1:20 diluted compound from above is transferred to a clear bottomed, black, 384-well assay plate using the Bravo or the Janus (384-well MDT head from Perkin Elmer). […] Finally, the fluorescence is measured (Excitation: 355 nm, Emission: 460 nm) using PerkinElmer EnVision in top read mode.
row,IC50 [nM],SMILES
1,40,"Cc1ncc(C2=C[C@](C(=O)NO)(c3cccc(F)c3C)CC2)cn1 [Example 10, (S)-1-(3-fluoro-2-methylphenyl)-N-hydroxy-3-(2-methylpyrimidin-5-yl)cyclopent-2-enecarboxamide]"
